Data as given in patent publication US20250163104A1, “MACROCYCLIC IMMUNOMODULATORS” (priority 2021, published 2025).
Where a SMILES comes first, the peptide text is derived from it. Bridges are numbered along the chain shown (N, C = ends). [ ]: non-standard residue; d: D form. The star is where a group is joined. Phe(4-COOH) = N[C@@H](Cc1ccc(C(=O)O)cc1)C(=O)O; Bip = N[C@@H](Cc1ccc(-c2ccccc2)cc1)C(=O)O; 4Pal = N[C@@H](Cc1ccncc1)C(=O)O; Cha = N[C@@H](CC1CCCCC1)C(=O)O; Carboxymethyl = O=C(O)C*; Nle = CCCC[C@H](N)C(=O)O; Orn = NCCC[C@H](N)C(=O)O; Dab = NCC[C@H](N)C(=O)O; Dap = NC[C@H](N)C(=O)O

Biological target: T1, human PD-1 / PD-L1-Ig binding on Jurkat cell line over-expressing human PD-1 (Jurkat-PD-1) (Homo sapiens, UniProt Q15116)
T1 construct: expressed in transfected cells; host or cells: Jurkat
Assay: Jurkat-PD-1 Cell Binding High-Content Screening Assay (CBA)
Type: cell-based
Settings: Jurkat-PD-1 cells, PE-labeled PD-L1-Ig 20 nM final; read-out: Jurkat HPD1_PDL1 IC50
How it was run: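 Compounds were preincubated with Jurkat-hPD-1 cells in DMEM plus 10% fetal calf serum for 2 h at 37° C. Phycoerythrin-labeled PD-L1-Ig (20 nM final) was then added for 1 hour. Cells were fixed in 4% paraformaldehyde with Hoechst 33342, and bound fluorescence was quantified by high-content imaging.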

T1 sequence (Q15116 25-288): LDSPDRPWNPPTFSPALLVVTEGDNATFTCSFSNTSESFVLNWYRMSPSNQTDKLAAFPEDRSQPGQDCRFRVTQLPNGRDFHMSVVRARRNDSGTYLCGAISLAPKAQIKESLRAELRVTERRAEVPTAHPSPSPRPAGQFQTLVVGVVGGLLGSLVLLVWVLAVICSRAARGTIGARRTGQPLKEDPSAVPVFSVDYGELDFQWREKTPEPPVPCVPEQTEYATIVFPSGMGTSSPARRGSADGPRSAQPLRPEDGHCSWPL

Row | Compound | IC50 [nM]
1 | CC(C)C[C@@H]1NC(=O)[C@H](Cc2c[nH]c3ccccc23)NC(=O)[C@H](CC(=O)O)NC(=O)[C@H](Cc2ccc(OCC(=O)O)cc2)NC(=O)[C@H](Cc2ccncc2)NC(=O)CSC[C@@H](C(=O)NCC(N)=O)NC(=O)[C@H](CO)NC(=O)[C@H](C(C)C)NC(=O)[C@H](CC2CCCCC2)NC(=O)[C@H](CCN)NC(=O)[C@@H](CC(C)C)NC(=O)[C@H](CCCN)NC(=O)[C@H](C(C)C)NC(=O)[C@H](Cc2ccc(-c3ccccc3)cc2)NC1=O [Compound 1402] ({CH2CO}-[4Pal]Y(Carboxymethyl)DWL[Bip]V[Orn][dL][Dab][Cha]VSCG-NH2; thioether N-14) | 9.9
2 | CC(C)C[C@@H]1NC(=O)[C@H](Cc2c[nH]c3ccccc23)NC(=O)[C@H](CC(=O)O)NC(=O)[C@H](Cc2ccc(OCC(=O)O)cc2)NC(=O)[C@H](CN)NC(=O)CSC[C@@H](C(=O)NCC(N)=O)NC(=O)[C@H](CO)NC(=O)[C@H](C(C)C)NC(=O)[C@H](CC2CCCCC2)NC(=O)[C@H](CCN)NC(=O)[C@@H](CC(C)C)NC(=O)[C@H](CCCN)NC(=O)[C@H](C(C)C)NC(=O)[C@H](Cc2ccc(-c3ccccc3)cc2)NC1=O [Compound 1403] ({CH2CO}-[Dap]Y(Carboxymethyl)DWL[Bip]V[Orn][dL][Dab][Cha]VSCG-NH2; thioether N-14) | 5.9
3 | CC(C)C[C@@H]1NC(=O)[C@H](Cc2c[nH]c3ccccc23)NC(=O)[C@H](CC(=O)O)NC(=O)[C@H](Cc2ccc(OCC(=O)O)cc2)NC(=O)[C@H](Cc2ccc(OCC(=O)O)cc2)NC(=O)CSC[C@@H](C(=O)NCC(N)=O)NC(=O)[C@H](CO)NC(=O)[C@H](C(C)C)NC(=O)[C@H](CC2CCCCC2)NC(=O)[C@H](CCN)NC(=O)[C@@H](CC(C)C)NC(=O)[C@H](CCCN)NC(=O)[C@H](C(C)C)NC(=O)[C@H](Cc2ccc(-c3ccccc3)cc2)NC1=O [Compound 1404] ({CH2CO}-Y(Carboxymethyl)Y(Carboxymethyl)DWL[Bip]V[Orn][dL][Dab][Cha]VSCG-NH2; thioether N-14) | 5.1
4 | CC(C)C[C@@H]1NC(=O)[C@H](Cc2c[nH]c3ccccc23)NC(=O)[C@H](CC(=O)O)NC(=O)[C@H](Cc2ccc(C(=O)O)cc2)NC(=O)[C@H](Cc2ccc(OCC(=O)O)cc2)NC(=O)CSC[C@@H](C(=O)NCC(N)=O)NC(=O)[C@H](CO)NC(=O)[C@H](C(C)C)NC(=O)[C@H](CC2CCCCC2)NC(=O)[C@H](CCN)NC(=O)[C@@H](CC(C)C)NC(=O)[C@H](CCCN)NC(=O)[C@H](C(C)C)NC(=O)[C@H](Cc2ccc(-c3ccccc3)cc2)NC1=O [Compound 1405] ({CH2CO}-Y(Carboxymethyl)[Phe(4-COOH)]DWL[Bip]V[Orn][dL][Dab][Cha]VSCG-NH2; thioether N-14) | 7.4
5 | CC(C)C[C@@H]1NC(=O)[C@H](Cc2c[nH]c3ccccc23)NC(=O)[C@H](CC(=O)O)NC(=O)[C@H](Cc2ccncc2)NC(=O)[C@H](Cc2ccc(OCC(=O)O)cc2)NC(=O)CSC[C@@H](C(=O)NCC(N)=O)NC(=O)[C@H](CO)NC(=O)[C@H](C(C)C)NC(=O)[C@H](CC2CCCCC2)NC(=O)[C@H](CCN)NC(=O)[C@@H](CC(C)C)NC(=O)[C@H](CCCN)NC(=O)[C@H](C(C)C)NC(=O)[C@H](Cc2ccc(-c3ccccc3)cc2)NC1=O [Compound 1406] ({CH2CO}-Y(Carboxymethyl)[4Pal]DWL[Bip]V[Orn][dL][Dab][Cha]VSCG-NH2; thioether N-14) | 15.9
6 | CCCC[C@@H]1NC(=O)[C@H](CCN)NC(=O)[C@@H](CC(C)C)NC(=O)[C@H](CCCN)NC(=O)[C@H](C(C)C)NC(=O)[C@H](Cc2ccc(-c3ccccc3)cc2)NC(=O)[C@H](CC(C)C)NC(=O)[C@H](Cc2c[nH]c3ccccc23)NC(=O)[C@H](CC(=O)O)NC(=O)[C@H](Cc2ccc(OCC(=O)O)cc2)NC(=O)[C@H](Cc2ccncc2)NC(=O)CSC[C@@H](C(=O)NCC(N)=O)NC(=O)[C@H](CO)NC(=O)[C@H](C(C)C)NC1=O [Compound 1407] ({CH2CO}-[4Pal]Y(Carboxymethyl)DWL[Bip]V[Orn][dL][Dab][Nle]VSCG-NH2; thioether N-14) | 7.9
7 | CCCC[C@@H]1NC(=O)[C@H](CCN)NC(=O)[C@@H](CC(C)C)NC(=O)[C@H](CCCN)NC(=O)[C@H](C(C)C)NC(=O)[C@H](Cc2ccc(-c3ccccc3)cc2)NC(=O)[C@H](CC(C)C)NC(=O)[C@H](Cc2c[nH]c3ccccc23)NC(=O)[C@H](CC(=O)O)NC(=O)[C@H](Cc2ccc(OCC(=O)O)cc2)NC(=O)[C@H](CN)NC(=O)CSC[C@@H](C(=O)NCC(N)=O)NC(=O)[C@H](CO)NC(=O)[C@H](C(C)C)NC1=O [Compound 1408] ({CH2CO}-[Dap]Y(Carboxymethyl)DWL[Bip]V[Orn][dL][Dab][Nle]VSCG-NH2; thioether N-14) | 8.2
8 | CCCC[C@@H]1NC(=O)[C@H](CCN)NC(=O)[C@@H](CC(C)C)NC(=O)[C@H](CCCN)NC(=O)[C@H](C(C)C)NC(=O)[C@H](Cc2ccc(-c3ccccc3)cc2)NC(=O)[C@H](CC(C)C)NC(=O)[C@H](Cc2c[nH]c3ccccc23)NC(=O)[C@H](CC(=O)O)NC(=O)[C@H](Cc2ccc(OCC(=O)O)cc2)NC(=O)[C@H](Cc2ccc(OCC(=O)O)cc2)NC(=O)CSC[C@@H](C(=O)NCC(N)=O)NC(=O)[C@H](CO)NC(=O)[C@H](C(C)C)NC1=O [Compound 1409] ({CH2CO}-Y(Carboxymethyl)Y(Carboxymethyl)DWL[Bip]V[Orn][dL][Dab][Nle]VSCG-NH2; thioether N-14) | 16.8
9 | CCCC[C@@H]1NC(=O)[C@H](CCN)NC(=O)[C@@H](CC(C)C)NC(=O)[C@H](CCCN)NC(=O)[C@H](C(C)C)NC(=O)[C@H](Cc2ccc(-c3ccccc3)cc2)NC(=O)[C@H](CC(C)C)NC(=O)[C@H](Cc2c[nH]c3ccccc23)NC(=O)[C@H](CC(=O)O)NC(=O)[C@H](Cc2ccc(C(=O)O)cc2)NC(=O)[C@H](Cc2ccc(OCC(=O)O)cc2)NC(=O)CSC[C@@H](C(=O)NCC(N)=O)NC(=O)[C@H](CO)NC(=O)[C@H](C(C)C)NC1=O [Compound 1410] ({CH2CO}-Y(Carboxymethyl)[Phe(4-COOH)]DWL[Bip]V[Orn][dL][Dab][Nle]VSCG-NH2; thioether N-14) | 7.3
10 | CCCC[C@@H]1NC(=O)[C@H](CCN)NC(=O)[C@@H](CC(C)C)NC(=O)[C@H](CCCN)NC(=O)[C@H](C(C)C)NC(=O)[C@H](Cc2ccc(-c3ccccc3)cc2)NC(=O)[C@H](CC(C)C)NC(=O)[C@H](Cc2c[nH]c3ccccc23)NC(=O)[C@H](CC(=O)O)NC(=O)[C@H](Cc2ccncc2)NC(=O)[C@H](Cc2ccc(OCC(=O)O)cc2)NC(=O)CSC[C@@H](C(=O)NCC(N)=O)NC(=O)[C@H](CO)NC(=O)[C@H](C(C)C)NC1=O [Compound 1411] ({CH2CO}-Y(Carboxymethyl)[4Pal]DWL[Bip]V[Orn][dL][Dab][Nle]VSCG-NH2; thioether N-14) | 9.5
11 | CC(C)C[C@H]1NC(=O)[C@H](CN)NC(=O)[C@H](C(C)C)NC(=O)[C@H](Cc2ccc(-c3ccccc3)cc2)NC(=O)[C@H](C(C)C)NC(=O)[C@H](Cc2c[nH]c3ccccc23)NC(=O)[C@H](CC(=O)O)NC(=O)[C@H](Cc2ccc(O)cc2)NC(=O)[C@H](Cc2ccccc2)NC(=O)CSC[C@@H](C(=O)NCC(N)=O)NC(=O)[C@H](CO)NC(=O)[C@H](C(C)C)NC(=O)[C@H](CC2CCCCC2)NC(=O)[C@H](CC(N)=O)NC1=O [Compound 1412] ({CH2CO}-FYDWV[Bip]V[Dap][dL]N[Cha]VSCG-NH2; thioether N-14) | 26.9
12 | CC(C)C[C@H]1NC(=O)[C@H](CN)NC(=O)[C@H](C(C)C)NC(=O)[C@H](Cc2ccc(-c3ccccc3)cc2)NC(=O)[C@H](C(C)C)NC(=O)[C@H](Cc2c[nH]c3ccccc23)NC(=O)[C@H](CC(=O)O)NC(=O)[C@H](Cc2ccc(C(=O)O)cc2)NC(=O)[C@H](Cc2ccc(OCC(=O)O)cc2)NC(=O)CSC[C@@H](C(=O)NCC(N)=O)NC(=O)[C@H](CO)NC(=O)[C@H](C(C)C)NC(=O)[C@H](CC2CCCCC2)NC(=O)[C@H](CC(N)=O)NC1=O [Compound 1413] ({CH2CO}-Y(Carboxymethyl)[Phe(4-COOH)]DWV[Bip]V[Dap][dL]N[Cha]VSCG-NH2; thioether N-14) | 8.8
13 | Cc1cccc(C[C@@H]2NC(=O)[C@H](CC(=O)O)NC(=O)[C@H](Cc3ccc(C(=O)O)cc3)NC(=O)[C@H](Cc3ccc(OCC(=O)O)cc3)NC(=O)CSC[C@@H](C(=O)N[C@@H](C)C(N)=O)NC(=O)[C@H]([C@@H](C)O)NC(=O)[C@H](C(C)C)NC(=O)[C@H](CC3CCCCC3)NC(=O)[C@H](CCN)NC(=O)[C@@H](CC(C)C)NC(=O)[C@H](CCCN)NC(=O)[C@H](CCCN)NC(=O)[C@H](Cc3ccc(-c4ccccc4)cc3)NC(=O)[C@H](C(C)C)NC2=O)c1 [Compound 1414] | 9.9
14 | Cc1cccc(C[C@@H]2NC(=O)[C@H](CC(=O)O)NC(=O)[C@H](Cc3ccc(C(=O)O)cc3)NC(=O)[C@H](Cc3ccc(OCC(=O)O)cc3)NC(=O)CSC[C@@H](C(=O)N[C@@H](C)C(N)=O)NC(=O)[C@H]([C@@H](C)O)NC(=O)[C@H](C(C)C)NC(=O)[C@H](CC3CCCCC3)NC(=O)[C@H](CCN)NC(=O)[C@@H](CC(C)C)NC(=O)[C@H](CCCN)NC(=O)[C@H](CCN)NC(=O)[C@H](Cc3ccc(-c4ccccc4)cc3)NC(=O)[C@H](C(C)C)NC2=O)c1 [Compound 1415] | 13.8
15 | Cc1cccc(C[C@@H]2NC(=O)[C@H](CC(=O)O)NC(=O)[C@H](Cc3ccc(C(=O)O)cc3)NC(=O)[C@H](Cc3ccc(OCC(=O)O)cc3)NC(=O)CSC[C@@H](C(=O)N[C@@H](C)C(N)=O)NC(=O)[C@H]([C@@H](C)O)NC(=O)[C@H](C(C)C)NC(=O)[C@H](CC3CCCCC3)NC(=O)[C@H](CCN)NC(=O)[C@@H](CC(C)C)NC(=O)[C@H](CCCN)NC(=O)[C@H](CN)NC(=O)[C@H](Cc3ccc(-c4ccccc4)cc3)NC(=O)[C@H](C(C)C)NC2=O)c1 [Compound 1416] | 8.5
